pEC50: −log10 of the molar value.
Experiments:
[1] = system: recombinant NL4-3 virus; assay: HIV cell culture assay (antiviral activity, luciferase readout); type: cell-based; conditions: Human immunodeficiency virus 1, NL43, MT2, MT-2 cells infected for 4-5 days with recombinant NL4-3 virus carrying Renilla luciferase
Procedure, shortened: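 MT-2 cells infected for 4-5 days with NL4-3 reference virus carrying Renilla luciferase in place of part of nef, in presence of serial compound dilutions. Luciferase read with live-cell substrate; EC50 from median effect equation fit.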

[2] = Compound cytotoxicity, XTT-based colorimetric assay; type: cell-based; conditions: human; uninfected MT2 cells, day 4, XTT assay
Procedure, shortened: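 Run under the antiviral-assay protocol but without virus. Viability was read on day 4 and CC50 values were derived from the readout.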

SMILES	pEC50 [1]	CC50 at 4 day [2] [nM]
Cn1nc(NS(C)(=O)=O)c2c(Cl)ccc(-n3c([C@H](Cc4cc(F)cc(F)c4)NC(=O)Cn4nc(C(F)F)c5c4C(F)(F)[C@@H]4C[C@H]54)nc4nc(-c5ccn(CCCC(F)(F)F)n5)ccc4c3=O)c21 (atropisomer, axis not shown; (P)) [Example 85, N-((S)-1-((3P)-3-(4-chloro-1-methyl-3-(methylsulfonamido)-1H-indazol-7-yl)-4-oxo-7-(1-(4,4,4-trifluorobutyl)-1H-pyrazol-3-yl)-3,4-dihydropyrido[2,3-d]pyrimidin-2-yl)-2-(3,5-difluorophenyl)ethyl)-2-((3bS,4aR)-3-(difluoromethyl)-5,5-difluoro-3b,4,4a,5-tetrahydro-1H-cyclopropa[3,4]cyclopenta[1,2-c]pyrazol-1-yl)acetamide]	10.02	> 100
Cn1nc(NS(C)(=O)=O)c2c(Cl)ccc(-n3c([C@H](Cc4cc(F)cc(F)c4)NC(=O)Cn4nc(C(F)F)c5c4C(F)(F)[C@@H]4C[C@H]54)nc4nc(-c5ccncc5)ccc4c3=O)c21 (atropisomer, axis not shown; (P)) [Example 34, N-((S)-1-((3P)-3-(4-chloro-1-methyl-3-(methylsulfonamido)-1H-indazol-7-yl)-4-oxo-7-(pyridin-4-yl)-3,4-dihydropyrido[2,3-d]pyrimidin-2-yl)-2-(3,5-difluorophenyl)ethyl)-2-((3bS,4aR)-3-(difluoromethyl)-5,5-difluoro-3b,4,4a,5-tetrahydro-1H-cyclopropa[3,4]cyclopenta[1,2-c]pyrazol-1-yl)acetamide]	10.15	> 100
Cc1cccc(-c2ccc3c(=O)n(-c4ccc(Cl)c5c(NS(C)(=O)=O)nn(C)c45)c([C@H](Cc4cc(F)cc(F)c4)NC(=O)Cn4nc(C(F)F)c5c4C(F)(F)[C@@H]4C[C@H]54)nc3n2)n1 (atropisomer, axis not shown; (P)) [Example 31, N-((S)-1-((3P)-3-(4-chloro-1-methyl-3-(methylsulfonamido)-1H-indazol-7-yl)-7-(6-methylpyridin-2-yl)-4-oxo-3,4-dihydropyrido[2,3-d]pyrimidin-2-yl)-2-(3,5-difluorophenyl)ethyl)-2-((3bS,4aR)-3-(difluoromethyl)-5,5-difluoro-3b,4,4a,5-tetrahydro-1H-cyclopropa[3,4]cyclopenta[1,2-c]pyrazol-1-yl)acetamide]	10.51	> 100
COc1ncc(-c2ccc3c(=O)n(-c4ccc(Cl)c5c(NS(C)(=O)=O)nn(C)c45)c([C@H](Cc4cc(F)cc(F)c4)NC(=O)Cn4nc(C(F)F)c5c4C(F)(F)[C@@H]4C[C@H]54)nc3n2)s1 (atropisomer, axis not shown; (P)) [Example 82, N-((S)-1-((3P)-3-(4-chloro-1-methyl-3-(methylsulfonamido)-1H-indazol-7-yl)-7-(2-methoxythiazol-5-yl)-4-oxo-3,4-dihydropyrido[2,3-d]pyrimidin-2-yl)-2-(3,5-difluorophenyl)ethyl)-2-((3bS,4aR)-3-(difluoromethyl)-5,5-difluoro-3b,4,4a,5-tetrahydro-1H-cyclopropa[3,4]cyclopenta[1,2-c]pyrazol-1-yl)acetamide]	10.16	> 100
Cn1nc(NS(C)(=O)=O)c2c(Cl)ccc(-n3c([C@H](Cc4cc(F)cc(F)c4)NC(=O)Cn4nc(C(F)F)c5c4C(F)(F)[C@@H]4C[C@H]54)nc4nc(-c5ccc6ncsc6c5)ccc4c3=O)c21 (atropisomer, axis not shown; (P)) [Example 71, N-((S)-1-(7-(benzo[d]thiazol-6-yl)-(3P)-3-(4-chloro-1-methyl-3-(methylsulfonamido)-1H-indazol-7-yl)-4-oxo-3,4-dihydropyrido[2,3-d]pyrimidin-2-yl)-2-(3,5-difluorophenyl)ethyl)-2-((3bS,4aR)-3-(difluoromethyl)-5,5-difluoro-3b,4,4a,5-tetrahydro-1H-cyclopropa[3,4]cyclopenta[1,2-c]pyrazol-1-yl)acetamide]	10.01	> 100
Cn1nc(NS(C)(=O)=O)c2c(Cl)ccc(-n3c([C@H](Cc4cc(F)cc(F)c4)NC(=O)Cn4nc(C(F)F)c5c4C(F)(F)[C@@H]4C[C@H]54)nc4nc(-c5ccnn5CC5CC5)ccc4c3=O)c21 (atropisomer, axis not shown; (P)) [Example 78, N-((S)-1-((3P)-3-(4-chloro-1-methyl-3-(methylsulfonamido)-1H-indazol-7-yl)-7-(1-(cyclopropylmethyl)-1H-pyrazol-5-yl)-4-oxo-3,4-dihydropyrido[2,3-d]pyrimidin-2-yl)-2-(3,5-difluorophenyl)ethyl)-2-((3bS,4aR)-3-(difluoromethyl)-5,5-difluoro-3b,4,4a,5-tetrahydro-1H-cyclopropa[3,4]cyclopenta[1,2-c]pyrazol-1-yl)acetamide]	10.05	> 100
Cn1nc(NS(C)(=O)=O)c2c(Cl)ccc(-n3c([C@H](Cc4cc(F)cc(F)c4)NC(=O)Cn4nc(C(F)F)c5c4C(F)(F)[C@@H]4C[C@H]54)nc4nc(-c5cccc(C(F)F)c5)ccc4c3=O)c21 (atropisomer, axis not shown; (P)) [Example 23, N-((S)-1-((3P)-3-(4-chloro-1-methyl-3-(methylsulfonamido)-1H-indazol-7-yl)-7-(3-(difluoromethyl)phenyl)-4-oxo-3,4-dihydropyrido[2,3-d]pyrimidin-2-yl)-2-(3,5-difluorophenyl)ethyl)-2-((3bS,4aR)-3-(difluoromethyl)-5,5-difluoro-3b,4,4a,5-tetrahydro-1H-cyclopropa[3,4]cyclopenta[1,2-c]pyrazol-1-yl)acetamide]	9.96	> 100
COc1cncc(-c2ccc3c(=O)n(-c4ccc(Cl)c5c(NS(C)(=O)=O)nn(C)c45)c([C@H](Cc4cc(F)cc(F)c4)NC(=O)Cn4nc(C(F)F)c5c4C(F)(F)[C@@H]4C[C@H]54)nc3n2)n1 (atropisomer, axis not shown; (P)) [Example 54, N-((S)-1-((3P)-3-(4-chloro-1-methyl-3-(methylsulfonamido)-1H-indazol-7-yl)-7-(6-methoxypyrazin-2-yl)-4-oxo-3,4-dihydropyrido[2,3-d]pyrimidin-2-yl)-2-(3,5-difluorophenyl)ethyl)-2-((3bS,4aR)-3-(difluoromethyl)-5,5-difluoro-3b,4,4a,5-tetrahydro-1H-cyclopropa[3,4]cyclopenta[1,2-c]pyrazol-1-yl)acetamide]	10.41	> 100
Cn1nc(NS(C)(=O)=O)c2c(Cl)ccc(-n3c([C@H](Cc4cc(F)cc(F)c4)NC(=O)Cn4nc(C(F)F)c5c4C(F)(F)[C@@H]4C[C@H]54)nc4nc(-c5cc(C(F)(F)F)n(CC(C)(F)F)n5)ccc4c3=O)c21 (single isomer, unassigned) [Example 94]	9.80	> 100
Cn1nc(NS(C)(=O)=O)c2c(Cl)ccc(-n3c([C@H](Cc4cc(F)cc(F)c4)NC(=O)Cn4nc(C(F)F)c5c4C(F)(F)[C@@H]4C[C@H]54)nc4nc(-c5ccc(F)c(C(F)(F)F)c5)ccc4c3=O)c21 (atropisomer, axis not shown; (P)) [Example 19, N-((S)-1-((3P)-3-(4-chloro-1-methyl-3-(methylsulfonamido)-1H-indazol-7-yl)-7-(4-fluoro-3-(trifluoromethyl)phenyl)-4-oxo-3,4-dihydropyrido[2,3-d]pyrimidin-2-yl)-2-(3,5-difluorophenyl)ethyl)-2-((3bS,4aR)-3-(difluoromethyl)-5,5-difluoro-3b,4,4a,5-tetrahydro-1H-cyclopropa[3,4]cyclopenta[1,2-c]pyrazol-1-yl)acetamide]	9.64	> 100
Cn1nc(NS(C)(=O)=O)c2c(Cl)ccc(-n3c([C@H](Cc4cc(F)cc(F)c4)NC(=O)Cn4nc(C(F)F)c5c4C(F)(F)[C@@H]4C[C@H]54)nc4nc(-c5ccc6scnc6c5)ccc4c3=O)c21 (atropisomer, axis not shown; (P)) [Example 72, N-((S)-1-(7-(benzo[d]thiazol-5-yl)-(3P)-3-(4-chloro-1-methyl-3-(methylsulfonamido)-1H-indazol-7-yl)-4-oxo-3,4-dihydropyrido[2,3-d]pyrimidin-2-yl)-2-(3,5-difluorophenyl)ethyl)-2-((3bS,4aR)-3-(difluoromethyl)-5,5-difluoro-3b,4,4a,5-tetrahydro-1H-cyclopropa[3,4]cyclopenta[1,2-c]pyrazol-1-yl)acetamide]	9.96	> 100
Cn1nc(NS(C)(=O)=O)c2c(Cl)ccc(-n3c([C@H](Cc4cc(F)cc(F)c4)NC(=O)Cn4nc(C(F)F)c5c4C(F)(F)[C@@H]4C[C@H]54)nc4nc(-c5cccc(OC(F)F)c5)ccc4c3=O)c21 (atropisomer, axis not shown; (P)) [Example 20, N-((S)-1-((3P)-3-(4-chloro-1-methyl-3-(methylsulfonamido)-1H-indazol-7-yl)-7-(3-(difluoromethoxy)phenyl)-4-oxo-3,4-dihydropyrido[2,3-d]pyrimidin-2-yl)-2-(3,5-difluorophenyl)ethyl)-2-((3bS,4aR)-3-(difluoromethyl)-5,5-difluoro-3b,4,4a,5-tetrahydro-1H-cyclopropa[3,4]cyclopenta[1,2-c]pyrazol-1-yl)acetamide]	9.70	> 100
Cc1ccnc(-c2ccc3c(=O)n(-c4ccc(Cl)c5c(NS(C)(=O)=O)nn(C)c45)c([C@H](Cc4cc(F)cc(F)c4)NC(=O)Cn4nc(C(F)F)c5c4C(F)(F)[C@@H]4C[C@H]54)nc3n2)c1 (atropisomer, axis not shown; (P)) [Example 49, N-((S)-1-((3P)-3-(4-chloro-1-methyl-3-(methylsulfonamido)-1H-indazol-7-yl)-7-(4-methylpyridin-2-yl)-4-oxo-3,4-dihydropyrido[2,3-d]pyrimidin-2-yl)-2-(3,5-difluorophenyl)ethyl)-2-((3bS,4aR)-3-(difluoromethyl)-5,5-difluoro-3b,4,4a,5-tetrahydro-1H-cyclopropa[3,4]cyclopenta[1,2-c]pyrazol-1-yl)acetamide]	10.74	> 100
